The results in this text go back to patent publication US9045491B2, “Thienyl [3,2-D] pyrimidin-4-one compounds, preparation method, pharmaceutical compositions and use thereof” (SHANGHAI INSTITUTE OF MATERIA MEDICA, CHINESE ACADEMY OF …, priority 2011, dated 2015).

Counter-ions that a name gives are not always drawn.

Common to all, as to assay type: biochemical
One experiment addresses T1, human DPP 8 (Homo sapiens, UniProt Q6V1X1).
T1 construct: made in house; host or cells: insect cells, baculovirus Bac-to-Bac
As to the kind of experiment: DPP 8 activity screening (Ala-Pro-AMC fluorescence). The settings on record: N.I. = No Inhibition. From the text: (§1) Screening method: dipeptidyl peptidase IV (DPP IV) activity screening, dipeptidyl peptidase 7 (DPP 7), dipeptidyl peptidase 8 (DPP 8) activity screening, and dipeptidyl peptidase 9 (DPP 9) activity screening.
(§2) Materials: human DPP IV, obtained extracellular fragment of protease DPP IV (aa29-766), was expressed and purified by our laboratory using baculovirus expression system Bac-to-Bac (purchased from GIBCO company) in accordance with the conventional experimental technology; human DPP 8 was obtained in insect cells by our laboratory using baculovirus expression system Bac-to-Bac (purchased from GIBCO company) in accordance with the conventional experimental technology; Human DPP 9 was obtained in insect cells by our laboratory using baculovirus expression system Bac-to-Bac (purchased from GIBCO company) in accordance with the conventional experimental technology; and the substrate Ala-Pro-AMC was synthesized by GL Biochem (Shanghai) Ltd.
(§3) Principle of Activity test: DPP IV, DPP 8 and DPP 9 can specifically hydrolyze the substrate Ala-Pro-AMC to form product AMC, and AMC is excited by 355 nm of UV light to generate 460 nm of emission light. The linear change of fluorescence value at 460 nm in unit time was dynamically measured and DPP IV activity was obtained by calculation.
(§4) Sample treatment: the sample was dissolved in DMSO and stored in low temperature. The concentration of DMSO in the final system was controlled so that the detected activity was not affected.
(§5) The activity of sample was tested under the selected single concentration from preliminary screening, for example, 20 μg/mL. […] The software for calculation was Graphpad Prism 4 and the model used for fitting was sigmoidal dose-response (variable slope). For most inhibitor screening models, the bottom and top of the fitting curve were set to 0 and 100.

A further experiment deals with T2, Human DPP 9 (Homo sapiens, UniProt Q86TI2).
T2 construct: made in house; host or cells: insect cells, baculovirus Bac-to-Bac
T2 sequence (Q86TI2 whole entry): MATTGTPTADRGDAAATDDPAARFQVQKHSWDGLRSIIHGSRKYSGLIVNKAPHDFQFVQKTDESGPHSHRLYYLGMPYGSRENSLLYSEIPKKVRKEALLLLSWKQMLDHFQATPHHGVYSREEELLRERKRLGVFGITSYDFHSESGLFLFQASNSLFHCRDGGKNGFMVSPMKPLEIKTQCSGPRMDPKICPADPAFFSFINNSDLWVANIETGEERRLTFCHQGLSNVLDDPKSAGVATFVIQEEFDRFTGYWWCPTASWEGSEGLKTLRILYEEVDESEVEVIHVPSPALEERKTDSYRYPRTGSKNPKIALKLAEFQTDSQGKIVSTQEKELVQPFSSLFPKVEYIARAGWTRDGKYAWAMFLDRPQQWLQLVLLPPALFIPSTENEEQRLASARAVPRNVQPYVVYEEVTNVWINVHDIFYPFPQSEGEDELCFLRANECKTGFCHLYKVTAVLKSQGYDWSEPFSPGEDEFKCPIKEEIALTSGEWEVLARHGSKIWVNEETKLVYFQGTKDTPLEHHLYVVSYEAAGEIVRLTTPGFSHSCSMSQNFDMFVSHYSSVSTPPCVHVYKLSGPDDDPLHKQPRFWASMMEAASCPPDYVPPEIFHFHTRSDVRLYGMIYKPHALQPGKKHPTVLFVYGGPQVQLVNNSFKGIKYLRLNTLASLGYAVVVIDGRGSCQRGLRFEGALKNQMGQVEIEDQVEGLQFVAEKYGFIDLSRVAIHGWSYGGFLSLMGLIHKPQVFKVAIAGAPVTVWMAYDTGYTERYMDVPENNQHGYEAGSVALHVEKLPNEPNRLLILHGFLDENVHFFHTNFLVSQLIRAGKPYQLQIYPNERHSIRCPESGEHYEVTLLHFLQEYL
As to the kind of experiment: DPP 9 activity screening (Ala-Pro-AMC fluorescence). The settings on record: N.I. = No Inhibition.
Source text: as §1, §2, §3, §4, §5

Experiment [1] concerns the target dipeptidyl peptidase 7 (DPP 7) (Homo sapiens, UniProt Q9UHL4). As to the kind of experiment: DPP 7 activity screening. As to conditions: N.I. = No Inhibition. The procedure:
as §1, §4, §5

A further experiment has as its target T3, human DPP IV (Homo sapiens, UniProt P27487).
T3 construct: extracellular fragment of protease DPP IV (aa29-766); made in house; host or cells: baculovirus expression system Bac-to-Bac
As to the kind of experiment: DPP IV activity screening (Ala-Pro-AMC fluorescence). How it is done:
as §1
Instruments: Microplate Reader (PerkinElmer, USA).
The linear change of fluorescence value at 460 nm in unit time was dynamically measured and DPP IV activity was obtained by calculation.
as §4, §5

A further experiment concerns the target T4, FAP (Homo sapiens, UniProt Q12884).
T4 sequence (Q12884 1-760): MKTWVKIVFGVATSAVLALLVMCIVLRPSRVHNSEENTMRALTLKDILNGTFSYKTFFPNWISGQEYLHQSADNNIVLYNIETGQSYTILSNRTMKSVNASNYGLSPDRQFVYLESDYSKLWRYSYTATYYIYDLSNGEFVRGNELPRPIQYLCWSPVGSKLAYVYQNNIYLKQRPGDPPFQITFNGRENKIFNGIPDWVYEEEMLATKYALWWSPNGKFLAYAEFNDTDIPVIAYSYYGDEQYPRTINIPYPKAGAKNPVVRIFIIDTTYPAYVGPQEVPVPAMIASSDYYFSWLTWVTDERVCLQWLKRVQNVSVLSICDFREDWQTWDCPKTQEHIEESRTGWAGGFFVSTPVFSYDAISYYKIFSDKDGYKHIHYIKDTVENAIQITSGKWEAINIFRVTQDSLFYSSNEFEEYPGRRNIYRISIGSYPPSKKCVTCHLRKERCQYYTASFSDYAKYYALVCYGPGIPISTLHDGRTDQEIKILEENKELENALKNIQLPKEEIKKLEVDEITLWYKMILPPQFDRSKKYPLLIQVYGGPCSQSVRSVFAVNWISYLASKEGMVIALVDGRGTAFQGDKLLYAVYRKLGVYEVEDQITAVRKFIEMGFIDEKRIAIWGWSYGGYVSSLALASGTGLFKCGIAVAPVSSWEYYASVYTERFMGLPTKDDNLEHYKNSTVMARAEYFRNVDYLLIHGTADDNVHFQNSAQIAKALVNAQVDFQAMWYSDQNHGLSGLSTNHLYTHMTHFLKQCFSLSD
Description: FAP inhibition (Table 1). As to conditions: N.I. = No Inhibition.

T3 sequence (P27487 29-766): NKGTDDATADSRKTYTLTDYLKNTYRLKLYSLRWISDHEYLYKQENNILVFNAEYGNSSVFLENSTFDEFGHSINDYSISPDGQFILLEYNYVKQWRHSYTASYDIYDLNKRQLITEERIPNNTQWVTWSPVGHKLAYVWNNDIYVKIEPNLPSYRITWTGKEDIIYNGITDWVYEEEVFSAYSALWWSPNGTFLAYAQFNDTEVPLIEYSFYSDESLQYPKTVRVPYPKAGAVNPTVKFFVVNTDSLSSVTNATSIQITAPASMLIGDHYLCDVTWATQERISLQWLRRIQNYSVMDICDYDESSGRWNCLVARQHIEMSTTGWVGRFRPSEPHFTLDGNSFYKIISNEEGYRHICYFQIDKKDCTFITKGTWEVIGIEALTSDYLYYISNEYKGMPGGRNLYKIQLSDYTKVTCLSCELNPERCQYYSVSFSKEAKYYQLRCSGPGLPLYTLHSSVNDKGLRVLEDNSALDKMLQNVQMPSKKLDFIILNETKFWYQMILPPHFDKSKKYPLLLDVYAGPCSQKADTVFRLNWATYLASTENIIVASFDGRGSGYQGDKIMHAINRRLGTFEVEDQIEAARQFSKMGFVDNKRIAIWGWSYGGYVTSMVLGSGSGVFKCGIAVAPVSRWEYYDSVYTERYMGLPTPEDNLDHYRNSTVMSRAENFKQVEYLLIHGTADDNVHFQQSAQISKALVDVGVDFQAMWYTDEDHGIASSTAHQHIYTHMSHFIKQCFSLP
T1 sequence (Q6V1X1 whole entry): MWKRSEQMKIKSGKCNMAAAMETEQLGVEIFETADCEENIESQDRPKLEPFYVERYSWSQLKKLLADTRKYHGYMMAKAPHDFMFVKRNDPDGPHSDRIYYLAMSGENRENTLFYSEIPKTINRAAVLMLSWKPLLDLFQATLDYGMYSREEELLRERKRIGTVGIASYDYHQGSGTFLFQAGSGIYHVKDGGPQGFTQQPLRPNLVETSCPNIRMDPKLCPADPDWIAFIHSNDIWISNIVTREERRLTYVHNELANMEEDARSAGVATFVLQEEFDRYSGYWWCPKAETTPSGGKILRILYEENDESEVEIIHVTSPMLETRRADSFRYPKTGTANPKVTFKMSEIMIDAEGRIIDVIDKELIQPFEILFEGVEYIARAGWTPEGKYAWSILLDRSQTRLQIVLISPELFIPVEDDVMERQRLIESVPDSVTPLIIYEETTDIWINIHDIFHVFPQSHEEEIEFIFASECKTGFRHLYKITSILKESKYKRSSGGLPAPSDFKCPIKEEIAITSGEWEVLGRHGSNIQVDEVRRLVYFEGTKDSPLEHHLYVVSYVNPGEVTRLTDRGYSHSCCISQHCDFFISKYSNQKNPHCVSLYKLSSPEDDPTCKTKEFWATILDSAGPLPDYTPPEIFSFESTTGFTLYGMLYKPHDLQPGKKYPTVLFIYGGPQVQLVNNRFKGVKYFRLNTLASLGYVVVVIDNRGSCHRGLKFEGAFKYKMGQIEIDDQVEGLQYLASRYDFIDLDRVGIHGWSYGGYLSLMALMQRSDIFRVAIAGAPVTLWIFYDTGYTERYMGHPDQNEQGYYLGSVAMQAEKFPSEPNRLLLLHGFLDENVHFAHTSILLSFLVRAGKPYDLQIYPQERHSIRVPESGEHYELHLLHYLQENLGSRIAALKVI

The term IC50 denotes the concentration that inhibits the measured activity by half. Read a high IC50 as a need for much substance. For `N#Cc1ccccc1Cn1c(N2CCC[C@@H](N)C2)nc2c(C#N)csc2c1=O` [Compound 83, (R)-2-(3-aminopiperidin-1-yl)-3-(2-cyanobenzyl)-4-oxo-3,4-dihydrothieno-[3,2-d]pyrimidine-7-carbonitrile], the IC50 is 317 µM at human DPP 8, 38.2 µM in experiment [1], 0.0161 µM against human DPP IV and 160 µM at FAP. At Human DPP 9, the “DPP 9 IC50” value was “N.I”.
Turning to `COC(=O)c1csc2c(=O)n(Cc3ccccc3C#N)c(N3CCC[C@@H](N)C3)nc12` [Compound 57, (R)-methyl 2-(3-aminopiperidin-1-yl)-3-(2-cyanobenzyl)-4-oxo-3,4-dihydrothieno[3,2-d]pyrimidine-7-carboxylate], at human DPP 8, the “DPP 8 IC50” value is listed as “N.I”. For the same molecule, the “DPP 9 IC50” value on Human DPP 9 is given as “N.I”. For the same molecule, the IC50 is 69.5 µM in experiment [1] and 0.02 µM against human DPP IV. Moreover, the “FAP IC50” value at FAP was “N.I”.
In the case of `N#Cc1ccccc1Cn1c(N2CCC[C@@H](N)C2)nc2cc(C(=O)NCc3ccccc3F)sc2c1=O` [Compound 109, (R)-2-(3-aminopiperidin-1-yl)-3-(2-cyanobenzyl)-N-(2-fluorobenzyl)-4-oxo-3,4-dihydrothieno[3,2-d]pyrimidine-6-carboxamide], the IC50 was 62.1 µM on human DPP 8, 91.8 µM against Human DPP 9, 0.0156 µM on human DPP IV and 101 µM against FAP. The “DPP 7 IC50” value in experiment [1] is recorded as “N.I”.
On to `CCOC(=O)CNC(=O)c1csc2c(=O)n(Cc3ccccc3C#N)c(N3CCC[C@@H](N)C3)nc12` [Compound 58, (R)-ethyl 2-(2-(3-aminopiperidin-1-yl)-3-(2-cyanobenzyl)-4-oxo-3,4-dihydrothieno[3,2-d]pyrimidine-7-carboxamido)acetate], for which the IC50 was 14.3 µM against human DPP 8 and 0.00872 µM at human DPP IV. In addition, the “DPP 9 IC50” value at Human DPP 9 was “N.I”. Also, in experiment [1], the “DPP 7 IC50” value is “N.I”. Moreover, the “FAP IC50” value on FAP is listed as “N.I”.
Take `N#Cc1ccccc1Cn1c(N2CCC[C@@H](N)C2)nc2cc(C(=O)N3CCOCC3)sc2c1=O` [Compound 118, (R)-2-((2-(3-aminopiperidin-1-yl)-6-(morpholine-4-carbonyl)-4-oxothieno-[3,2-d]pyrimidin-3(4H)-yl)methyl)-benzonitrile]: the half-inhibitory concentration (IC50) against human DPP 8 is 83.6 µM; on human DPP IV, 0.0185 µM; on FAP it was 80.2 µM. For the same molecule, the “DPP 9 IC50” value at Human DPP 9 is listed as “N.I”. In addition, the “DPP 7 IC50” value in experiment [1] is “N.I”.
Turning to `N#Cc1ccccc1Cn1c(N2CCC[C@@H](N)C2)nc2cc(C(=O)NCC3CC3)sc2c1=O` [Compound 106, (R)-2-(3-aminopiperidin-1-yl)-3-(2-cyanobenzyl)-N-(cyclopropylmethyl)-4-oxo-3,4-dihydrothieno[3,2-d]pyrimidine-6-carboxamide], the IC50 on human DPP 8 stood at 76.2 µM; on Human DPP 9, 127 µM; on human DPP IV, 0.0183 µM; against FAP, 117 µM. In experiment [1], the “DPP 7 IC50” value is recorded as “N.I”.
Regarding `N#Cc1ccccc1Cn1c(N2CCC[C@@H](N)C2)nc2c(N)csc2c1=O` [Compound 84, (R)-2-((7-amino-2-(3-aminopiperidin-1-yl)-4-oxothieno[3,2-d]pyrimidin-3(4H)-yl)methyl)benzonitriIe], the concentration for half-maximal inhibition (IC50) came to 62 µM against human DPP 8, 0.0242 µM at human DPP IV and 91.3 µM against FAP. Further, on Human DPP 9, the “DPP 9 IC50” value is “N.I”. Further, the “DPP 7 IC50” value in experiment [1] was “N.I”.
Take `CN1CCN(C(=O)c2csc3c(=O)n(Cc4ccccc4C#N)c(N4CCC[C@@H](N)C4)nc23)CC1` [Compound 70, (R)-2-((2-(3-aminopiperidin-1-yl)-7-(4-methylpiperazine-1-carbonyl)-4-oxothieno[3,2-d]pyrimidin-3(4H)-yl)-methyl)benzonitrile]: the concentration for half-maximal inhibition (IC50) against human DPP 8 came out at 38.9 µM; against Human DPP 9, 94.5 µM; at human DPP IV, 0.0186 µM; on FAP, 136 µM. The “DPP 7 IC50” value in experiment [1] is “N.I”.
The like results for `COCCCNC(=O)c1cc2nc(N3CCC[C@@H](N)C3)n(Cc3ccccc3C#N)c(=O)c2s1` [Compound 112, (R)-2-(3-aminopiperidin-1-yl)-3-(2-cyanobenzyl)-N-(3-methoxypropyl)-4-oxo-3,4-dihydrothieno[3,2-d]-pyrimidine-6-carboxamide] were, in that order, 69.1 µM, 159 µM, 0.0238 µM, 213 µM and “N.I”.
`N#Cc1ccccc1Cn1c(N2CCC[C@@H](N)C2)nc2cc(CN3CCOCC3)sc2c1=O` [Compound 95, (R)-2-((2-(3-aminopiperidin-1-yl)-6-(morpholinomethyl)-4-oxothieno-[3,2-d]pyrimidin-3(4H)-yl)methyl)benzonitrile]: on human DPP 8, the “DPP 8 IC50” value is on record as “N.I”. Also, on Human DPP 9, the “DPP 9 IC50” value is given as “N.I”. In addition, in experiment [1], the “DPP 7 IC50” value is given as “N.I”. On human DPP IV, this molecule gave a 50% inhibitory concentration (IC50) of 0.0592 µM. Besides, the “FAP IC50” value on FAP is recorded as “N.I”.
Turning to `N#Cc1ccccc1Cn1c(N2CCC[C@@H](N)C2)nc2c(C(N)=O)csc2c1=O` [Compound 45, (R)-2-(3-aminopiperidin-1-yl)-3-(2-cyanobenzyl)-4-oxo-3,4-dihydrothieno-[3,2-d]pyrimidine-7-carboxamide], the “DPP 8 IC50” value on human DPP 8 is recorded as “N.I”. At Human DPP 9, the “DPP 9 IC50” value is reported as “N.I”. Also, in experiment [1], the “DPP 7 IC50” value is on record as “N.I”. At human DPP IV, this molecule showed an IC50 of 0.00357 µM. The “FAP IC50” value on FAP was “N.I”.
With `N#Cc1ccccc1Cn1c(N2CCC[C@@H](N)C2)nc2c(C(=O)O)csc2c1=O` [Compound 44, (R)-2-(3-aminopiperidin-1-yl)-3-(2-cyanobenzyl)-4-oxo-3,4-dihydrothieno-[3,2-d]pyrimidine-7-carboxylic acid hydrochloride], the “DPP 8 IC50” value at human DPP 8 is “N.I”. Besides, the “DPP 9 IC50” value on Human DPP 9 was “N.I”. Also, the 50% inhibitory concentration (IC50) in experiment [1] turned out to be 39.2 µM; on human DPP IV, 0.00976 µM. Further, the “FAP IC50” value at FAP is listed as “N.I”.
`CS(=O)(=O)CCNC(=O)c1csc2c(=O)n(Cc3ccccc3C#N)c(N3CCC[C@@H](N)C3)nc12` [Compound 90, (R)-2-(3-aminopiperidin-1-yl)-3-(2-cyanobenzyl)-N-(2-(methylsulfonyl)-ethyl)-4-oxo-3,4-dihydrothieno[3,2-d]-pyrimidine-7-carboxamide]: the 50% inhibitory concentration (IC50) is 102 µM against human DPP 8 and 0.0143 µM against human DPP IV. Also, the “DPP 9 IC50” value at Human DPP 9 was “N.I”. In addition, in experiment [1], the “DPP 7 IC50” value is reported as “N.I”.
With `N#Cc1ccccc1Cn1c(N2CCC[C@@H](N)C2)nc2cc(C(=O)N3CCC(CO)CC3)sc2c1=O` [Compound 124, (R)-2-((2-(3-aminopiperidin-1-yl)-6-(4-(hydroxymethyl)piperidine-1-carbonyl)-4-oxothieno[3,2-d]pyrimidin-3(4H)-yl)methyl)benzonitrile], the half-maximal inhibitory concentration (IC50) at human DPP 8 turned out to be 43.9 µM; against human DPP IV it was 0.0269 µM. The “DPP 9 IC50” value on Human DPP 9 was “N.I”. For the same molecule, the “DPP 7 IC50” value in experiment [1] is on record as “N.I”.
`N#Cc1ccccc1Cn1c(N2CCC[C@@H](N)C2)nc2c(CO[C@H]3CCOC3)csc2c1=O` [Compound 87, 2-((2-((R)-3-aminopiperidin-1-yl)-4-oxo-7-((((S)-tetrahydrofuran-3-yl)oxy)methyl)thieno[3,2-d]pyrimidin-3(4H)-yl)methyl)benzonitrile]: at human DPP 8, the “DPP 8 IC50” value is “N.I”. For the same molecule, the “DPP 9 IC50” value at Human DPP 9 is “N.I”. Further, in experiment [1], the “DPP 7 IC50” value is given as “N.I”. At human DPP IV, this molecule had an IC50 of 0.0265 µM.
